Test [1] relates to patients with a clinically confirmed RA. The test can be described thus: Clinical response to MTX therapy in RA patients (DAS28, EULAR criteria). It counts as in vivo, human. Conditions: Health Assessment Questionnaire; one line per individual RA patient; during MTX treatment. Here is the method:
[…] patients with a clinically confirmed RA were examined in the series of tests for the identification and definition of biomarkers for therapy prediction with MTX. In this regard, 5 ml of whole blood was taken from the patients in 2 PAXgene tubes (PreAnalytiX, Hombrechtikon, Switzerland) and turned for 24 hours on an overhead roller at 20° C. (20 rpm); afterwards, they were frozen at −20° C. until worked up. The patient samples were acquired in the context of two clinical studies under standard conditions (HitHard study; n=29; own clinical study; n=22) and after authorization by the ethics commission of the charity, as well as the agreement of the patients. The clinical data, prior to MTX therapy and over the course of >1 year, were stored in the context of the study conditions in a clinical database in accordance with ISO 9001 standard guidelines. The calculation of the assessment of the MTX response before and during the therapy periods was carried out in accordance with the guidelines from the European League Against Rheumatism (ELUAR) using the “Disease Activity Score” considering 28 joints (DAS28; (van Gestel et al, 1999)). The MTX therapy response was classified, in accordance with the guidelines, into the following three groups: responders (R), moderate responders (MR) and non-responders (NR). […]

A further test concerns RA patients. To be noted: after a year (Furst 1996); cited from earlier work.

Among the data in patent US20170058348A1, “Predictive mRNA Biomarkers for the Prediction of the Treatment with Methotrexate (MTX)” (Charité - Universitätsmedizin Berlin, priority 2014, published 2017) are HAQ and sustained success rates values, retold here.

Molecules are shown by their SMILES. Several values for one entry are separate records, joined by “and”; a condition that tells them apart may be missing. Equal values may be shown once.

For `CN(Cc1cnc2nc(N)nc(N)c2n1)c1ccc(C(=O)N[C@@H](CCC(=O)O)C(=O)O)cc1` [MTX, methotrexate], the HAQ in test [1] was 0.6 (2×) and 0.8 and 1.3 (3×) and 0.3 (3×) and 0.0 (3×) and 0.1 (4×) and 1.0 (2×) and 0.5 (2×) and 0.75 and 1.1 (3×) and 0.4 and 1.4 and 0.9 and 1.5 and 1.9 and 2.3. Moreover, the sustained success rates in the test with RA patients is 40-50%.
